Here are results for 4 compounds from PMC12563536, “A Novel Allosteric Inhibitor Targeting IMPDH at Y233 Overcomes Resistance to Tyrosine Kinase Inhibitors in Lymphoma” (Cancers, 2025).

Holding throughout (type): biochemical
Test [1] concerns the target T1, recombinant human IMPDH2 (Homo sapiens, UniProt P12268).
T1 construct: commercial recombinant protein (R&D Systems); 514 residues full length; tetramer/octamer
Nature of the test: IMPDH activity assay kit, microplate, […] min preincubation. Conditions: dose-dependent, 50-200 µM tested.

In test [2] the target is T1, recombinant human IMPDH2. The test can be described thus: IMPDH activity assay, 96-well screen. Particulars: read-out: % inhibition at 10 μM.
The target in test [3] is T1, recombinant human IMPDH2. Nature of the test: IMPDH activity assay kit, microplate. Conditions: targeted to allosteric GTP-binding site of the CBS domain (site from docking).

T1 sequence (P12268 2-514): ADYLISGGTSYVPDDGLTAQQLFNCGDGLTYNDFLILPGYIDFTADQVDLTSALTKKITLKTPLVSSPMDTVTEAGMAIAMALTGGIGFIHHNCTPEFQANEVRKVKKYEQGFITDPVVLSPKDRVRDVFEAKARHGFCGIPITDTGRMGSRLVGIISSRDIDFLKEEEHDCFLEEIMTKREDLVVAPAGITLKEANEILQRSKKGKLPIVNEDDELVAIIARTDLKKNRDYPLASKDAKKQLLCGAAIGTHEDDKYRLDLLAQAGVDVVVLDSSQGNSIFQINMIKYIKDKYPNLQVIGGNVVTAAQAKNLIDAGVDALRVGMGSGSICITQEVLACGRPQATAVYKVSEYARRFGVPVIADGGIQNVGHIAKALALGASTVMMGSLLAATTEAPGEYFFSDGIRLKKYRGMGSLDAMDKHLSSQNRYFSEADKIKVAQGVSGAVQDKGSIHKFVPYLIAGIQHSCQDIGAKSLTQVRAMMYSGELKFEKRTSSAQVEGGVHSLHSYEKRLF

In the case of `CCCCCCCC(=O)OC[C@H](COP(=O)(O)O[C@@H]1[C@H](O)[C@H](OP(=O)(O)O)[C@@H](O)[C@H](O)[C@H]1O)OC(=O)CCCCCCC` [PI(3)P diC8], the “% inhibition at 200 μM” value in test [1] is reported as over 50%.

Turning to `CN(C)c1ccc(C=c2sc3nc(=O)c(-c4ccccc4NC(=O)C(F)(F)F)nn3c2=O)cc1` [compound 5, comp-5], the inhibition at 10 µM in test [2] was over 32%.

Consider `O=C1C=CC(=O)c2c(O)c(N3CCN(CCOCCO)CC3)c(Br)c(O)c21` [compound 10, Comp-10], for which, in test [3], the IC50 is about 260 nM. `O=C1c2ccccc2C(=O)C1C(c1ccc([N+](=O)[O-])cc1)C1C(=O)c2ccccc2C1=O` [compound 12, comp-12]: in test [2], the inhibition at 10 µM was over 52%.
